# Columns and labels:
# [1] = test system: plasma RBP4; assay: Plasma RBP4 lowering (ELISA) in cynomolgus monkey; format: in vivo
# Method: Pharmacokinetic studies were conducted in male beagle dogs and male cynomolgus monkeys at SRI International, Menlo Park, CA. General procedures for animal care and housing were in accordance with the National Research Council (NRC) Guide for the Care and Use of Laboratory Animals (1996) and the Animal Welfare Standards incorporated in 9 CFR Part 3, 1991 and complied with guidelines set forth by the ARVO Animal Statement for the Use of Animals in Ophthalmic and Vision Research. During the course of the PK experiments, cynomolgus monkeys were individually housed in stainless steel primary enclosures in an AAALAC-accredited facility. Animals were fed a commercial monkey chow, and supplemental food was provided (fresh fruits, vegetables, seeds, and nuts). Reverse osmosis-purified drinking water was available at all times. Cynomolgus monkeys were maintained on a 12:12 hour light:dark cycle at the 64–84°F temperature and 30–70% humidity. Monkeys had access to enrichment opportunities (grooming devices, foraging devices, activity panels and mirrors) and were provided auditory stimuli and human interaction enrichment throughout the study. Blood samples were collected by venipuncture of a peripheral vein. Animals were acclimated to the squeeze back mechanism in their home cage by repeated, short periods of restraint during general husbandry procedures for at least 2 weeks prior to dosing. Animal were not removed from their cages for collection, and no anesthesia/analgesic agents were used for blood collection. […] For PK experiments, beagle dogs were individually housed in enclosed run (≥ 4 ft x 6 ft). Dogs were exposed to their daily ration of food, Harlan Teklad 2025C Certified Global 25% Protein Dog Diet. Water was provided from the public water supply (municipal tap water) ad libitum. Dogs were maintained on a 12:12 hour light:dark cycle at the 72–73°F temperature and 40–71% humidity. Every effort was made to minimize, if not eliminate, pain and suffering in all animals in this study. No restraining devices were used in blood collecting procedures. Dogs were gentle hand-held to restrain by trained technicians with the dogs foreleg extended for sample collection of blood from cephalic vein. Animals were awake during blood sample collection with no anesthesia/analgesic agents used, and positive reinforcement by the technician was provided following collection. […] All dogs were released back to the colony after the study was completed. Male beagle dogs and male cynomolgus monkey received a single i.v. dose of a test compound at 0.5 mg kg^−1 (dog) and 1 mg kg^−1 (monkey) or a single p.o. dose of a test compound of at 2 mg kg^−1 (dog) and 5 mg kg^−1 (monkey). The number of animals that was used in PK experiments is 3 per study group. Intravenous administration vehicle was 3% DMA/45% PEG300/12% ethanol/40% sterile water; p.o. vehicle was 2% Tween 80 in 0.9% saline. Blood was collected from dogs and monkeys at pre-dose and at 5, 15 and 30 min, and 1, 2, 4, 6, 8, 12, 24, 36 and 48 h post-dose in the i.v. arms and at 15 and 30 min, and 1, 2, 4, 6, 8, 12, 24, 36 and 48 h post-dose in the p.o. arm. […] Following protein extraction with acetonitrile, compound concentrations in plasma were measured by LC-MS/MS. The plasma drug level data were analyzed using WinNonlin software package; Model 201 (for i.v. bolus administration);was used for the analysis of i.v. data, and Model 200 (for extravascular administration) was used for the analysis of the p.o. data. […]
# [2] = Metabolic stability in dog liver microsomes; format: in vitro ADME; details: male, beagle, pH 7.4, 1 mg/mL, read-out: Microsomal Stability (% Remaining at 30 min)
# Method: All measurements were done in duplicate. Pooled mixed gender human donor microsomes, male beagle dog microsomes and male cynomolgus monkey were obtained from BioIVT (Baltimore, MD). […] A mixture containing 50 mM potassium phosphate buffer pH 7.4 and 1 mg/mL liver microsomes was pre-warmed for 10 min at 37°C in a shaking water bath, followed by the addition of test compound. Final DMSO concentration in the reaction mix was 0.1%. […] The final volume of the reaction mixture was 800 μL, containing 1 mg/mL liver microsomes, and 1 μM test compound. Aliquots (100 μL) of reaction mixtures were removed from the incubation plate at pre-defined timepoints and mixed with 150 μL of ice-cold acetonitrile, incubated on ice for 15 min, and samples were centrifuged (3,600 rpm, 10 min, 4°C) to precipitate protein. The supernatants were diluted 1:1 (v/v) with water containing the internal standard and subjected to the LC/MS analysis.
structure (smiles),measurement,setting,value
Cc1cc(C(=O)O)nc(N2C[C@H]3C[C@@H](c4ccccc4C(F)(F)F)C[C@H]3C2)n1 [BPN-14136],plasma RBP4 reduction,[1]; single 1 mg kg^−1 i.v. dose,84%
same,RBP4 reduction,"[1]; single 5 mg kg^−1 oral dose, 24 h",97%
same,RBP4 reduction,"[1]; single 5 mg kg^−1 oral dose, 36 h",94%
same,RBP4 reduction,"[1]; single 5 mg kg^−1 oral dose, 48 h",91%
same,maximum decrease in plasma RBP4,"[1]; single 5 mg kg^−1 oral dose, at 12 hours after dosing",99%
same,"remaining at 0.5 h, 1 μM",[2],93%
